Results published in US11903981B2, “Use of Anaerofustis stercorihominis in preventing and/or treating metabolic diseases” (priority 2018, dated 2024).
Marks after values point to notes of the source that are not given here.

Legend:
[1] = test system: AM25-6; experiment: Antibiotic sensitivity of AM25-6 by the drug sensitive paper method; format: cell-based, Anaerofustis stercorihominis; details: antibiotic susceptibility papers on AM25-6 plates, 37° C., 48 hours
Protocol: The sensitivity of AM25-6 to 20 common antibiotics was tested by the drug sensitive paper method. 100 μl of AM25-6 bacterial solution cultured to the logarithmic phase was spread plated. Antibiotic susceptibility papers (purchased from Hangzhou Microbial Reagent Co. LTD) were affixed on the medium surface of plates, cultured at 37° C. for 48 hours, after which the size of inhibition zone was measured.

[2] = test system: T2D mice model (C57bL/6 mice); experiment: T2D animal model, fasting blood glucose; format: in vivo
Protocol: (§1) The T2D animal model is constructed by using C57bL/6 mice (purchased from Guangdong Medical Experimental Animal Center) at 8 weeks old and 20±2 g of body weight. The mice were housed in a specific pathogen free (SPF) environment and adaptively fed for 1 week, followed by grouping and modeling. The T2D animal model is induced by injection of streptozotocin (STZ) along with feeding high-fat feed, and the mice having fasting blood glucose (FBG) reaching to 10 mM/L can be used as a T2D mice model. Fifty mice selected for experiments are randomly divided into 5 groups.
(§2) Bacterial agent group 1: the T2D mice model was administered with the AM25-6 bacterial solution (1×10^8 cfu/ml) by gavage;
(§3) Bacterial agent group 2: the T2D mice model was administered with the DSM 17244 bacterial solution (1×10^8 cfu/ml) by gavage;
(§4) Bacterial agent group 3: the T2D mice model was administered with the DSM 28733 bacterial solution (1×10^8 cfu/ml) by gavage;
(§5) Metformin treatment group: the T2D mice model was treated with the positive drug metformin.
(§6) The experiment was carried out based on the different groups. After the construction of T2D mice model (i.e., FBG>10), the treatment was started and lasted for 2 months. The food intake amount and body weight of mice were recorded daily. Blood of mice was collected from the tail vein every week for detection of fasting blood glucose. The oral glucose tolerance test (OGTT) of mice was measured at week 4 of treatment and at the end of the experiment.

[3] = test system: T2D mice model (C57bL/6 mice); experiment: T2D animal model (STZ plus high-fat feed), body weight; format: in vivo; details: gavage
Protocol: as §1, §2, §3, §4, §5, §6

[4] = test system: T2D mice model (C57bL/6 mice); experiment: T2D animal model, oral glucose tolerance test (OGTT); format: in vivo
Protocol: as §1, §6
The results of oral glucose tolerance test (OGTT) for mice shown in Table 8 indicate that the blood glucose of mice reaches the highest level (i.e., 17.8-23.1 mmol/L) at 30 minutes upon administration of glucose by gavage. […] From the perspective of overall glucose tolerance process, it can be seen that Anaerofustis stercorihominis can effectively ameliorate glucose intolerance in diabetic mice.

Compound | Diameter of inhibition zone [1] [cm] | further results
NCC[C@H](O)C(=O)N[C@@H]1C[C@H](N)[C@@H](O[C@H]2O[C@H](CN)[C@@H](O)[C@H](O)[C@H]2O)[C@H](O)[C@H]1O[C@H]1O[C@H](CO)[C@@H](O)[C@H](N)[C@H]1O [Amikacin] | 1.5 | –
CC1(C)S[C@@H]2[C@H](NC(=O)[C@H](N)c3ccccc3)C(=O)N2[C@H]1C(=O)O [Ampicillin] | >4.0 | –
CC1(C)S[C@@H]2[C@H](NC(=O)C(C(=O)O)c3ccccc3)C(=O)N2[C@H]1C(=O)O (some centres unmarked) [Carbenicillin] | >4.0 | –
CC1=C(C(=O)O)N2C(=O)[C@@H](NC(=O)[C@H](N)c3ccccc3)[C@H]2SC1 [Cefalexin] | 2.0 | –
Cc1nnc(SCC2=C(C(=O)O)N3C(=O)[C@@H](NC(=O)Cn4cnnn4)[C@H]3SC2)s1 [Cefazolin] | 2.6 | –
CCN1CCN(C(=O)N[C@@H](C(=O)N[C@@H]2C(=O)N3C(C(=O)O)=C(CSc4nnnn4C)CS[C@H]23)c2ccc(O)cc2)C(=O)C1=O [Cefoperazone] | >4.0 | –
CC1=C(C(=O)O)N2C(=O)[C@@H](NC(=O)[C@H](N)C3=CCC=CC3)[C@H]2SC1 [Cefradine] | 2.0 | –
CO/N=C(\C(=O)N[C@@H]1C(=O)N2C(C(=O)O)=C(CSc3nc(=O)c(=O)[nH]n3C)CS[C@H]12)c1csc(N)n1 [Ceftriaxone Sodium] | >4.0 | –
CO/N=C(\C(=O)N[C@@H]1C(=O)N2C(C(=O)O)=C(COC(N)=O)CS[C@H]12)c1ccco1 [Cefuroxime] | 3.0 | –
C[C@H]1c2cccc(O)c2C(=O)C2=C(O)[C@]3(O)C(=O)C(C(N)=O)=C(O)[C@@H](N(C)C)[C@@H]3[C@@H](O)[C@@H]21 [Doxycycline] | 2.0 | –
CC[C@H]1OC(=O)[C@H](C)[C@@H](O[C@H]2C[C@@](C)(OC)[C@@H](O)[C@H](C)O2)[C@H](C)[C@@H](O[C@@H]2O[C@H](C)C[C@H](N(C)C)[C@H]2O)[C@](C)(O)C[C@@H](C)C(=O)[C@H](C)[C@@H](O)[C@]1(C)O [Erythromycin] | 2.0 | –
CC(C)(O/N=C(\C(=O)N[C@@H]1C(=O)N2C(C(=O)[O-])=C(C[n+]3ccccc3)CS[C@H]12)c1csc(N)n1)C(=O)O [Fortum (Ceftazidime), Ceftazidime] | >4.0 | –
NC[C@H]1O[C@H](O[C@H]2[C@H](O)[C@@H](O[C@H]3O[C@H](CO)[C@@H](O)[C@H](N)[C@H]3O)[C@H](N)C[C@@H]2N)[C@H](O)[C@@H](O)[C@@H]1O [Kanamycin] | 1.8 | –
CN(C)C(=N)N=C(N)N [Metformin, metformin, reference compound] | – | Fasting blood glucose, Week 1 ([2]; Week 1): 16.8 mmol/L; Fasting blood glucose, Week 3 ([2]; Week 3): 16.2 mmol/L; Fasting blood glucose, Week 5 ([2]; Week 5): 13.9 mmol/L; Fasting blood glucose, Week 7 ([2]; Week 7): 11.5* mmol/L; Fasting blood glucose, Week 9 ([2]; Week 9): 10.1** mmol/L; Body weight ([3]; Week 1): 20.33 g; Body weight ([3]; Week 3): 22.36 g; Body weight ([3]; Week 5): 24.63 g; Body weight ([3]; Week 7): 25.86 g; Body weight ([3]; Week 9, *P<0.05 relative to model group): 26.53* g; Blood glucose in OGTT, 0 minute ([4]; 0 minute after glucose by gavage): 9.3 mmol/L; Blood glucose in OGTT, 30 minutes ([4]; 30 minutes after glucose by gavage): 18.6 mmol/L; Blood glucose in OGTT, 60 minutes ([4]; 60 minutes after glucose by gavage): 16.4 mmol/L; Blood glucose in OGTT, 90 minutes ([4]; 90 minutes after glucose by gavage): 11.7* mmol/L; Blood glucose in OGTT, 120 minutes ([4]; 120 minutes after glucose by gavage): 10.3 mmol/L
CN(C)c1ccc(O)c2c1C[C@H]1C[C@H]3[C@H](N(C)C)C(O)=C(C(N)=O)C(=O)[C@@]3(O)C(O)=C1C2=O [Minocin (Minocycline), Minocycline] | 2.6 | –
Cc1onc(-c2ccccc2)c1C(=O)N[C@@H]1C(=O)N2[C@@H]1SC(C)(C)[C@@H]2C(=O)O [Oxacillin] | 1.0 | –
CCN1CCN(C(=O)N[C@@H](C(=O)N[C@@H]2C(=O)N3[C@@H]2SC(C)(C)[C@@H]3C(=O)O)c2ccccc2)C(=O)C1=O [Piperacillin] | 3.0 | –
CN(C)[C@@H]1C(O)=C(C(N)=O)C(=O)[C@@]2(O)C(O)=C3C(=O)c4c(O)cccc4[C@@](C)(O)[C@H]3C[C@@H]12 [Tetracycline] | 0.9 | –
Gentamicin | 2.0 | –
Neomycin | 1.0 | –
Penicillin | 3.0 | –
